Test [1] deals with T1, E. coli ITRS (isoleucyl-tRNA synthetase) (Escherichia coli, UniProt P00956).
T1 construct: endogenous in cells; enzyme partially purified in house
The test is described as follows: Colorimetric assay based on valine as substrate (valine-based assay of the invention). As to conditions: 15 mM valine, 0.75 mM ATP, 37° C., read-out: Concentration giving 50% inhibition (I50). It is filed as biochemical. The procedure:
2. Measurement of ITRS activity using a Colorimetric Assay based on using Valine as Substrate
Incubations were set up in quadruplicate (as above) with a final volume of 200 μl as described below. Stock reagents used in the method were as follows:
(§1) Prepared as described above. The specific activity of the enzyme used in the present example was approximately 145 nM of product formed/minute/mg, and was about 5%-10% active. The enzyme was diluted as appropriate. It will be appreciated that the enzyme amounts in the assay can be adjusted according to the purity of the enzyme used.
(§2) The assay mixture for a final volume of 200 μl was composed of:
The standard assay (in 200 μl) was carried out in quadruplicate in Eppendorf microcentrifuge tubes. The ingredients were pre-incubated for 2-3 minutes at 37° C. and the reaction started by addition of 20 μl of appropriately diluted enzyme extract (as described above).
Thus the final reaction contained reagents in the following concentrations:
0.12 mg of mixed tRNA species from E. coli (as described above) HPLC purified from […] available from by Sigma (UK) Ltd 1 unit/μl of inorganic pyrophosphatase and
an appropriate concentration of ITRS (for example […] of the enzyme as described above).
The samples were incubated at 37° C. for 20-60 minutes. […] The optical absorbance is then measured at a wavelength of 630 nm using a spectrophotometer.

Test [2] addresses T1, E. coli ITRS (isoleucyl-tRNA synthetase). Description: 3H-isoleucine-based radiolabelled (standard radiometric) assay. Conditions: for IC50: standard 3H-isoleucine radiometric assay, 10 μM isoleucine, 1 mM ATP, 37° C., read-out: Concentration giving 50% inhibition (I50); for Mode of inhibition: with respect to the amino acid substrate, Compound 1 at 0, 0.25 μM and 1.0 μM with varying 3H-isoleucine up to 100 μM. The class given is biochemical. The protocol: 2. Measurement of ITRS Activity using a ^3 H-Isoleucine-Based Radiolabelled Assay
The activity of ITRS during fractionation was monitored using conditions based on the method described by Steinmetz and Weil (7), and as described below. Stock reagents used in the method are as follows:
as §1, §2
The standard assay (in 200 μl) was carried out in quadruplicate in Eppendorf microcentrifuge tubes. The ingredients were preincubated for 2-3 minutes at 37° C., and the reaction started by addition of approximately 20 μl of the appropriately diluted enzyme extract as described above.
The final reaction contained reagents in the following concentrations:
0.1% bovine serum albumin
10 μM Isoleucine containing ^3 H-Ile
The assay was incubated at 37° C. for 20 minutes, and stopped by addition of 50 μl 20% TCA, and the tubes placed on ice.
200 μl of the reaction mixture was pipetted onto 1.5 cm^2 cellulose 3MM filters. The filters were washed (in groups of 4) as follows: 1×10% TCA, 2×5% TCA, and 2×ethanol using fresh wash medium for each set of replicates to avoid cross contamination. The dried filters were placed in 20 ml scintillation vials and the radioactivity counted in 15 ml Optiphase.
The inhibition constants of two compounds were measured and the results compared with the values obtained using the standard ^3 H-isoleucine assay.

Consider 2 molecules from patent US5985630A, “Assay for detecting inhibitors of aminoacyl-tRNA synthetases” (Zeneca Limited, priority 1993, dated 1999).

T1 sequence (P00956 whole entry): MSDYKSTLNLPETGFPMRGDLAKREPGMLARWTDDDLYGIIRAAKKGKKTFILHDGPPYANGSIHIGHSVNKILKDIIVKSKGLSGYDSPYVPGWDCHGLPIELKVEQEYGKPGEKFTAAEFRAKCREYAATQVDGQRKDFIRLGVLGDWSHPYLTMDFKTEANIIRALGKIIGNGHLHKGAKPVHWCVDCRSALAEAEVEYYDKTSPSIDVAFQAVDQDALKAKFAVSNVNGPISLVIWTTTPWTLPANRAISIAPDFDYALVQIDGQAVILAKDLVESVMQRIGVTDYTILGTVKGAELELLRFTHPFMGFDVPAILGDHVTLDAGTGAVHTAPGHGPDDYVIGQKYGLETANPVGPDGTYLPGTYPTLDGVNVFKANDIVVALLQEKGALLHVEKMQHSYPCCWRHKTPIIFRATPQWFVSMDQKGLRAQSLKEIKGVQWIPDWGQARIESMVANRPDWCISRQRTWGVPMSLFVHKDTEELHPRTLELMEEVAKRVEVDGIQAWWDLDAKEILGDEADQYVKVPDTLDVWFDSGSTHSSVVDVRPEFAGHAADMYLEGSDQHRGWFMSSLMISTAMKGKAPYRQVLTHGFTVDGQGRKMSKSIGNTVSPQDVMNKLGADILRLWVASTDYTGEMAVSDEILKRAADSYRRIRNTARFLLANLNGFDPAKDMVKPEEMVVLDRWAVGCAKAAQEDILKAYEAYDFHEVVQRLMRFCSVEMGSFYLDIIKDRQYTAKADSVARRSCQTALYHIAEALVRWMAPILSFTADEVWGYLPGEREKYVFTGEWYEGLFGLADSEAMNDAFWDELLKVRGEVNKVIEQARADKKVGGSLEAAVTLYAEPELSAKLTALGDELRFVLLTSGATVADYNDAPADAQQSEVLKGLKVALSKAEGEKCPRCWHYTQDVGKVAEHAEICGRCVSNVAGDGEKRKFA

Consider `CC(=O)C(C)C1OC1CC1COC(CC(C)=CC(=O)O)C(O)C1O` (stereo not shown) [Compound 1], for which the IC50 in test [1] is 2000 nM; in test [2] it was 109 nM. Moreover, the Mode of inhibition result in test [2] is “competitive with respect to isoleucine”; in test [2] (listed as compound 1), “competitive with the amino acid”.
With `C=COCCOC(=O)C=C(C)CC1OCC(CC2OC2C(C)C(C)O)C(O)C1O` (stereo not shown) [Compound 2], the IC50 in test [1] is 38 nM; in test [2], 2.3 nM. Besides, in test [2], the Mode of inhibition result is “competitive with the amino acid”.
